From US10105357B2, “Indication of antibiotic drugs for preparation of cancer inhibition pharmaceutical composition” (LAUNX BIOMEDICAL CO., LTD., priority 2014, dated 2018)
Where two headings read alike, the source gives them in different places.

What was measured:
Type in all cases: cell-based, human
[1] = system: LoVo (Colorectal Adenocarcinoma); assay: Cell viability analysis, colon cancer LoVo; details: Homo sapiens, LoVo, 72 h
[2] = system: MDA-MB-231 (Mammary Gland, Adenocarcinoma); assay: Cell viability analysis, breast cancer MDA-MB-231; details: Homo sapiens, MDA-MB-231, 72 h, read-out: The results of antibiotic drug inhibiting cancer cell lines (cell viability analysis), MDA-MB231
[3] = system: HepG2 (Hepatocellular Carcinoma); assay: Cell viability analysis, hepatic cancer HepG2; details: Homo sapiens, HepG2, 72 h
[4] = system: HeLa (Cervix Adenocarcinoma); assay: Cell viability analysis, cervical cancer HeLa; details: Homo sapiens, HeLa, 72 h
[5] = system: HL-60 (Acute Promyelocytic Leukemia); assay: Cell viability analysis, leukemia HL-60; details: Homo sapiens, HL-60, 72 h, read-out: cell viability (survival rate), HL-60, drug 10 μM, 72 hours, WST-1, OD450 nm
[6] = system: A375 (Amelanotic Melanoma); assay: Cell viability analysis, skin cancer A375; details: Homo sapiens, A-375, 72 h
U-2OS = assay: Cell viability analysis, osteosarcoma U-2OS; details: Homo sapiens, U2OS, 72 h, read-out: The results of antibiotic drug inhibiting cancer cell lines (cell viability analysis), U2OS
[7] = system: Hep3B (hepatocellular carcinoma); assay: Cell viability analysis, hepatic cancer Hep3B; details: Homo sapiens, Hep3B, 72 h, read-out: The results of antibiotic drug inhibiting cancer cell lines (cell viability analysis), Hep3B
[8] = system: HI650 (Lung Adenocarcinoma); assay: Cell viability analysis, lung cancer HI650; details: Homo sapiens, NCI-H1650, 72 h
NIH: OVCAR-3 = assay: Cell viability analysis, ovarian cancer NIH: OVCAR-3; details: Homo sapiens, OVCAR-3, 72 h, read-out: The results of antibiotic drug inhibiting cancer cell lines (cell viability analysis), NIH-OVCAR-3
[9] = system: SAS (Tongue squamous cell carcinoma); assay: Cell viability analysis, tongue cancer SAS; details: Homo sapiens, 72 h, read-out: The results of antibiotic drug inhibiting cancer cell lines (cell viability analysis), SAS
[10] = system: C-33A (Cervical carcinoma); assay: Cell viability analysis, cervical cancer C-33A; details: Homo sapiens, C-33-A, 72 h, read-out: The results of antibiotic drug inhibiting cancer cell lines (cell viability analysis), C-33A
[11] = system: 786-O (Renal adenocarcinoma); assay: Cell viability analysis, renal cancer 786-O; details: Homo sapiens, 786-0, 72 h, read-out: The results of antibiotic drug inhibiting cancer cell lines (cell viability analysis), 786-O
cancer cell lines = assay: Cell viability analysis (WST-1) on cancer cell lines; details: drug 10 μM, 72 hours, WST-1; Table 3
AsPC-1 = assay: Cell viability analysis, pancreatic cancer AsPC-1; details: Homo sapiens, ASPC1, 72 h, read-out: The results of antibiotic drug inhibiting cancer cell lines (cell viability analysis), AsPC-1
[12] = system: AGS (Gastric Adenocarcinoma); assay: Cell viability analysis, gastric cancer AGS; details: Homo sapiens, 72 h
TOV-21G = assay: Cell viability analysis, ovarian cancer TOV-21G; details: Homo sapiens, TOV21G, 72 h, read-out: The results of antibiotic drug inhibiting cancer cell lines (cell viability analysis), TOV-21G
[13] = system: BCC (basal cell carcinoma); assay: Cell viability analysis, skin cancer BCC; details: Homo sapiens, 72 h, read-out: The results of antibiotic drug inhibiting cancer cell lines (cell viability analysis), BCC
[14] = system: MCF7 (Mammary Gland, Adenocarcinoma); assay: Cell viability analysis, breast cancer MCF7; details: Homo sapiens, MCF7, 72 h
[15] = system: A549 (Lung Adenocarcinoma); assay: Cell viability analysis, lung cancer A549; details: Homo sapiens, A549, 72 h
[16] = system: TSGH-8301 (Urinary Bladder Carcinoma); assay: Cell viability analysis, bladder cancer TSGH-8301; details: Homo sapiens, 72 h
T24 = assay: Cell viability analysis, bladder cancer T24; details: Homo sapiens, T-24, 72 h, read-out: The results of antibiotic drug inhibiting cancer cell lines (cell viability analysis), T24
BxPC-3 = assay: Cell viability analysis, pancreatic cancer BxPC-3; details: Homo sapiens, BXPC-3, 72 h, read-out: The results of antibiotic drug inhibiting cancer cell lines (cell viability analysis), BxPC-3
[17] = system: MKN-45 (Gastric Adenocarcinoma); assay: Cell viability analysis, gastric cancer MKN-45; details: Homo sapiens, MKN-45, 72 h
[18] = read-out: The results of antibiotic drug inhibiting cancer cell lines (cell viability analysis), LoVo, repeated experiment
[19] = read-out: cell viability (survival rate), LoVo, drug 10 μM, 72 hours, WST-1, OD450 nm

| Structure (SMILES) | viability at 10 µM [1, 18] | viability at 10 µM [1, 19] | viability at 10 µM [2] | viability at 10 µM (U-2OS) | viability at 10 µM [7] | viability at 10 µM (NIH: OVCAR-3) | viability at 10 µM [9] | viability at 10 µM [10] | viability at 10 µM [11] | inhibition effect on different cancer cell lines (cancer cell lines) | viability at 10 µM (AsPC-1) | viability at 10 µM [13] | viability at 10 µM (T24) | viability at 10 µM (BxPC-3) | also measured |
| --- | --- | --- | --- | --- | --- | --- | --- | --- | --- | --- | --- | --- | --- | --- | --- |
| O=c1[nH]c(=O)n([C@H]2C[C@H](O)[C@@H](CO)O2)cc1C(F)(F)F [Trifluridine (Viroptic), Trifluridine] | 62.5% | 72.1% | 75.1% | 61.2% | 77.6% | 105% | 33.5% | 66.5% | 37.9% | significant inhibition effect | 62.1% | 83.3% | 55.4% | 73.1% | viability at 10 µM ([3]; read-out: The results of antibiotic drug inhibiting cancer cell lines (cell viability analysis), HepG2, HepG2, repeated experiment): 85.6%; viability at 10 µM ([3]; read-out: cell viability (survival rate), HepG2, drug 10 μM, 72 hours, WST-1, OD450 nm): 90.2%; viability at 10 µM ([4]; read-out: The results of antibiotic drug inhibiting cancer cell lines (cell viability analysis), HeLa, repeated experiment): 86.9%; viability at 10 µM ([4]; read-out: cell viability (survival rate), HeLa, drug 10 μM, 72 hours, WST-1, OD450 nm): 51.8%; viability at 10 µM [5]: 88.9%; viability at 10 µM ([6]; read-out: The results of antibiotic drug inhibiting cancer cell lines (cell viability analysis), A375, A375, repeated experiment): 59.4%; viability at 10 µM ([6]; read-out: cell viability (survival rate), A375, drug 10 μM, 72 hours, WST-1, OD450 nm): 48.6%; viability at 10 µM ([8]; read-out: The results of antibiotic drug inhibiting cancer cell lines (cell viability analysis), H1650, H1650, repeated experiment): 78%; viability at 10 µM ([8]; read-out: cell viability (survival rate), H1650, drug 10 μM, 72 hours, WST-1, OD450 nm): 71%; viability at 10 µM ([12]; read-out: The results of antibiotic drug inhibiting cancer cell lines (cell viability analysis), AGS, repeated experiment): 83.2%; viability at 10 µM ([12]; read-out: cell viability (survival rate), AGS, drug 10 μM, 72 hours, WST-1, OD450 nm): 64.4%; viability at 10 µM (TOV-21G): 81.4%; viability at 10 µM ([14]; read-out: The results of antibiotic drug inhibiting cancer cell lines (cell viability analysis), MCF-7, MCF-7, repeated experiment): 79.6%; viability at 10 µM ([14]; read-out: cell viability (survival rate), MCF7, drug 10 μM, 72 hours, WST-1, OD450 nm): 36.3%; viability at 10 µM ([15]; read-out: The results of antibiotic drug inhibiting cancer cell lines (cell viability analysis), A549, A549, repeated experiment): 61.6%; viability at 10 µM ([15]; read-out: cell viability (survival rate), A549, drug 10 μM, 72 hours, WST-1, OD450 nm): 36.5%; viability at 10 µM ([16]; read-out: The results of antibiotic drug inhibiting cancer cell lines (cell viability analysis), TSGH-8301, TSGH-8301, repeated experiment): 86.4%; viability at 10 µM ([16]; read-out: cell viability (survival rate), TSGH, drug 10 μM, 72 hours, WST-1, OD450 nm): 51.3%; viability at 10 µM ([17]; read-out: The results of antibiotic drug inhibiting cancer cell lines (cell viability analysis), MKN-45, MKN-45, repeated experiment): 89.5%; viability at 10 µM ([17]; read-out: cell viability (survival rate), MKN-45, drug 10 μM, 72 hours, WST-1, OD450 nm): 43.6% |
| CC(C)c1nc(CN(C)C(=O)N[C@H](C(=O)N[C@@H](Cc2ccccc2)C[C@H](O)[C@H](Cc2ccccc2)NC(=O)OCc2cncs2)C(C)C)cs1 [Ritonavir] | 90.2% | 82.3% | 102% | 87.1% | 102% | 92.2% | 73.2% | 111% | 102% | significant inhibition effect | 88.6% | 86.4% | 97.3% | 89.6% |  |
